US20100068252A1, “METHOD FOR PREPARING POLYMERIC MATRICES BY RADIATION IN THE PRESENCE OF SENSITIVE PHARMACEUTICAL COMPOUNDS” (DSM IP ASSETS B.V., priority 2006, published 2010)

Assay: Phase (ii) testing: UV irradiation of drug with photoinitiator (radical generation), drug recovery by HPLC
Assay type: physicochemical
Conditions: sensitive = degrades more than 5% with radical generation at 12 J/cm^2
Text: As used herein, the term sensitive pharmaceutical compounds is to be interpreted as compounds that degrade for more than 5% in an environment with radical generation at 12 J/cm^2 irradiation. More in particular, the pharmaceutical can be sensitive during polymerisation that can be initiated with UV or visible light (200-700 nm) or with electron beam or gamma radiation, and without or up to 10% radical generating species (initiator) present. If an initiator is present, it is preferably about 1-10 wt % of a photoinitiator. In addition to photoinitiators, the system may comprise also a thermal initiator (for example peroxide and/or redox initiators). Preferably a radiation sensitive (photo)initiator is used, for example a Norrish Type I or Type II initiator. It is possible to work in the absence of these radical generating species where electron beam or gamma radiation is used or in the case where unsaturated compounds (one compound whose double bond is electron rich and another compound whose double bond is electron poor) react with each other via a donor-acceptor complex to form a polymer.
Potential degradation can be measured by dissolving 100 ppm (0.1 g/l) pharmaceutical compound in a suitable solvent in a quartz, glass or HPLC vessel. One series of vessels is used as such. In a second series of vessels, the one or more initiators, preferably those used in the polymerization mixture, are added in the same amount as the pharmaceutical compound. Next, the vessels are subjected to irradiation at 2 and 12 J/cm^2. As an example, UV radiation can be performed with a lab UV source Bluepoint 2, equipped with a D-bulb D65 and directed onto the sample by a UV light guide. The output from the guide is 200 mW/cm^2 (200 mJ/cm^2 per second) as measured with a Solascope 1 UV spectrometer. A dose of 2 and 12 J/cm^2 was achieved by irradiating 10 and 60 seconds, respectively. The choice of irradiation system could be governed by the applications or processing considerations that typically influence hardware use in a laboratory, hospital or manufacturing environment. […]
The recovery could be analysed by HPLC. […] UV spectra of the drugs before and after UV irradiation (at both 2 and 12 J/cm^2) had identical shapes, meaning that the HPLC method could be used to quantitatively measure changes in drug concentrations. Any degradation would be calculated as: minus the percentage of recovered API.
UV irradiation of drug-containing solutions (see below) was performed with a lab UV source Dr. Hoenle Bluepoint 2, equipped with a D-bulb, directed onto the (open) HPLC vials (2 ml) by a UV light guide (200 mW/cm^2; 200 mJ/cm^2 per second as measured with Solascope 1 UV emission spectrometer). […]

| radical sensitivity in the current testing method | Structure (SMILES) |
| --- | --- |
| radical sensitive | O=C(N[C@H](CO)[C@H](O)c1ccc([N+](=O)[O-])cc1)C(Cl)Cl [Chloroamphenicol] |
| radical sensitive | CCCCc1oc2ccccc2c1C(=O)c1cc(I)c(OCCN(CC)CC)c(I)c1 [Amiodarone ®, Amiodarone] |
| radical sensitive | COc1cc2nc(N3CCN(C(=O)c4ccco4)CC3)nc(N)c2cc1OC [Prazosin ®, Prazosin] |
| radical sensitive | COc1cc2nc(N3CCN(C(=O)C4CCCO4)CC3)nc(N)c2cc1OC (stereo not shown) [Terazosin ®, Terazosin] |
